Reference: PubChem BioAssay (NCI)
Where “and” joins values, the source holds several entries; their conditions need not be identical. Equal values may be shown once.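 Interpolation was linear, between the two tested concentrations surrounding the appropriate level; five concentrations were tested over 48 hours in 96-well plates. Here, GI50 denotes the concentration required for 50% inhibition of growth. The concentration for full growth arrest is given as TGI.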

Tests used:
Experiment in all cases: NCI-60 cell line screen, 48 h
KM20L2 colon = system: KM20L2 colon
SNB-78 CNS = system: SNB-78 CNS
SF-295 CNS = system: SF-295 CNS
SK-MEL-5 melanoma = system: SK-MEL-5 melanoma
CAKI-1 renal = system: CAKI-1 renal
NCI-H460 lung = system: NCI-H460 lung
M19-MEL melanoma = system: M19-MEL melanoma
SR leukemia = system: SR leukemia
SW-620 colon = system: SW-620 colon
U251 CNS = system: U251 CNS
MCF7 breast = system: MCF7 breast

Compound | TGI (KM20L2 colon) | TGI (SNB-78 CNS) | TGI (SF-295 CNS) | TGI (SK-MEL-5 melanoma) | TGI (CAKI-1 renal) | TGI (NCI-H460 lung) | TGI (M19-MEL melanoma) | TGI (SR leukemia) | TGI (SW-620 colon) | TGI (U251 CNS) | TGI (MCF7 breast) | GI50 (SK-MEL-5 melanoma) | GI50 (CAKI-1 renal) | GI50 (NCI-H460 lung) | GI50 (MCF7 breast) | GI50 (SW-620 colon) | GI50 (U251 CNS) | GI50 (SF-295 CNS) | GI50 (SR leukemia)
COc1ccc(-c2ccc(CC(=O)O)cc2)cc1OC | > 100 µM | > 100 µM | > 100 µM | > 100 µM | > 100 µM | > 100 µM | > 100 µM | > 100 µM | > 100 µM | > 100 µM | – | – | – | – | – | – | – | – | –
O=C1NC(O)n2c(=O)[nH]c(=O)n21 (stereo not given) | > 100 µM | > 100 µM | > 100 µM | > 100 µM | > 100 µM | > 100 µM | > 100 µM | > 100 µM | > 100 µM | > 100 µM | – | – | – | – | – | – | – | – | –
N#C/C(=C\c1ccc2[nH]ccc2c1)C(=O)NCCCCNC(=O)/C(C#N)=C/c1ccc2[nH]ccc2c1 | > 100 µM | > 100 µM | > 31.6 µM | > 31.6 µM | > 31.6 µM | > 31.6 µM | > 100 µM | > 31.6 µM | > 31.6 µM | > 31.6 µM | > 10 µM | – | – | – | – | – | – | – | –
COC(=O)C1CC(c2ccc(OC)c(OC)c2)OC1=O (mixture of isomers) | > 100 µM | > 100 µM | > 100 µM | > 100 µM | > 100 µM | > 100 µM | > 100 µM | > 100 µM | > 100 µM | > 100 µM | – | – | – | – | – | – | – | – | –
COC(=O)C1C=CCC2CCCCC21N1CCCC1 (stereo not given) | > 100 µM | > 100 µM | > 100 µM | > 100 µM | > 100 µM | > 100 µM | > 100 µM | > 100 µM | > 100 µM | > 100 µM | – | – | – | – | – | – | – | – | –
Cc1cc(=O)[nH]c(NNC(C#N)c2cccc([N+](=O)[O-])c2)n1 (stereo not given) | > 100 µM | > 100 µM | > 100 µM | > 100 µM | > 100 µM | > 100 µM | > 100 µM | > 100 µM | > 100 µM | > 100 µM | – | – | – | – | – | – | – | – | –
COC1(OC)C2(Cl)C3=CCCC=C3C1(Cl)C(Cl)=C2Cl | 60.4 µM | > 100 µM | 74.2 µM | 29.2 µM | 84.2 µM | > 100 µM | 47.4 µM | 53.5 µM | 36.9 µM | 82.1 µM | – | – | – | – | – | – | – | – | –
O=C(c1ccccc1)C1N=NN(Cc2ccccc2[N+](=O)[O-])C1C(=O)c1ccccc1 (stereo not given) | > 100 µM | > 100 µM | > 100 µM | > 100 µM | > 100 µM | > 100 µM | > 100 µM | > 100 µM | > 100 µM | > 100 µM | – | – | – | – | – | – | – | – | –
CC(C)(C)C#COC(=O)c1ccccc1 | > 100 µM | > 100 µM | > 100 µM | > 100 µM | > 100 µM | > 100 µM | > 100 µM | > 100 µM | > 100 µM | > 100 µM | – | – | – | – | – | – | – | – | –
[N-]=[N+]=CC(=O)CCC(N)C(=O)O (stereo not given) | > 250 µM | > 74.4 µM | > 250 µM | 105 µM | 84.5 µM | 147 µM | > 138 µM | > 231 µM | > 250 µM | > 250 µM | > 250 µM | 1.48 µM | 10.9 µM | 2.93 µM | 0.641 µM | 12.6 µM | 6.59 µM | – | –
CN1CCCC2[C@@H]3CCC4c5nonc5CC[C@]4(C)C3CC[C@@]21C (stereo not given in full) | > 100 µM | > 100 µM | > 100 µM | > 100 µM | > 100 µM | > 100 µM | > 100 µM | > 100 µM | > 100 µM | > 100 µM | – | – | – | – | – | – | – | – | –
O=c1[nH]ccc(CNC23CC4CC(CC(C4)C2)C3)c1O | > 100 µM | > 100 µM | > 100 µM | > 100 µM | > 100 µM | > 100 µM | > 100 µM | > 100 µM | > 100 µM | > 100 µM | – | – | – | – | – | – | – | – | –
C[C@@H]1C[C@@H]([C@H](O)CC2CC(=O)NC(=O)C2)C(=O)[C@@H](C)C1 | 21.5 µM | 11.1 µM | 1.19 µM and 1.69 µM | 2.18 µM and 0.494 µM | 5.17 µM and 1.83 µM | – | 3.48 µM | – | 1.23 µM | 2.67 µM and 12.6 µM | 7.15 µM | 0.199 µM | 0.188 µM | 0.234 µM | 0.216 µM | 0.219 µM | 0.237 µM | 0.176 µM | 0.28 µM
O=c1c(Cc2ccccc2)c(O)cc2n1CCC2 | > 100 µM | > 100 µM | > 100 µM | > 100 µM | > 100 µM | > 100 µM | > 100 µM | > 100 µM | > 100 µM | > 100 µM | – | – | – | – | – | – | – | – | –
c1ccc2c(c1)[nH]c1c2nc2ccccn21 | > 100 µM | > 100 µM | > 100 µM | > 100 µM | > 100 µM | > 100 µM | > 100 µM | > 100 µM | > 100 µM | > 100 µM | – | – | – | – | – | – | – | – | –
